In patent US20230391792A1, “METHODS AND COMPOSITIONS FOR TARGETED PROTEIN DEGRADATION” (Ranok Therapeutics (Hangzhou) Co. Ltd., priority 2020, published 2023) one finds IC50 data, which are given here for 26 molecules.

The first test concerns the target T1, HSP90α protein (N-terminal) (Homo sapiens, UniProt P07900).
T1 construct: purchased BPS Bioscience #50298
Kind of test: HSP90α-binding fluorescent polarization (FP) assay, competition with BODIPY-labeled RNK04010. As to conditions: probe RNK04010 (BODIPY-labeled) 5 nM, 25° C. 300 min. Here is the method: (§1) Binding of test compounds to HSP90α protein was measured by fluorescent polarization (FP) using the HSP90α (N-terminal) Assay Kit (BPS Bioscience, #50298), following the manufacturer's instructions, except as noted. Fluorescently labeled HSP90-binding compounds, either the provided FITC-geldanamycin (5 nM final concentration) or RNK04010, a triazolone-based HSP90-binding small molecule labeled with BODIPY through a piperizine-phenyl linker (5 nM final concentration) were employed. A 2.5-fold serial dilution of each test compound ranging from 20 μM to 5.2 nM was assayed for binding to HSP90α. After the final step of adding HSP90α protein to each assay well, plates were mixed by brief shaking, incubated at 25° C. for 120 min for FITC-geldanamycin or 300 min for RNK04010, and fluorescence was measured using a PerkinElmer EnVision Plate Reader.
(§2) HSP90α-binding fluorescent polarization (FP) assays measuring competition with the fluorescently labeled HSP90 binders, FITC-geldanamycin or RNK04010 (BODIPY-labeled), were applied to assess the binding capabilities of CHAMP molecules to HSP90.
One may read the IC50 as the concentration that inhibits the measured activity by half. Regarding `Cc1sc2c(c1C)C(c1ccc(Cl)cc1)=NC(CC(=O)N1CCC(CN3CCN(Cc4ccc(-n5c(O)nnc5-c5cc(C(C)C)c(O)cc5O)cc4)CC3)CC1)c1nnc(C)n1-2` (stereo not shown) [Compound 1], the IC50 was in the range of 100 to 1000 nM.

For `CCOc1cc(N2CCC(C(=O)NCCCNC(=O)O[C@H]3CC[C@H](Nc4cc(-n5nc(C(F)(F)F)c6c5CC(C)(C)CC6=O)ccc4C(N)=O)CC3)CC2)ccc1Nc1ncc2c(n1)N(C)c1ccccc1C(=O)N2C` [Compound 150], the half-maximal inhibitory concentration (IC50) is > 1000 nM.

For the molecule `CCOc1cc(N2CCC(C(=O)NCCOCCNC(=O)O[C@H]3CC[C@H](Cc4cc(-n5nc(C)c6c5CC(C)(C)CC6=O)ccc4C(N)=O)CC3)CC2)ccc1N(CC)c1ncc2c(n1)N(C)c1ccccc1C(=O)N2C` [Compound 151], the half-maximal inhibitory concentration (IC50) was > 1000 nM.

For the molecule `CCOc1cc(N2CCC(C(=O)N3CCN(C(=O)O[C@H]4CC[C@H](Nc5cc(-n6nc(C(F)(F)F)c7c6CC(C)(C)CC7=O)ccc5C(N)=O)CC4)CC3)CC2)ccc1Nc1ncc2c(n1)N(C)c1ccccc1C(=O)N2C` [Compound 152], the IC50 was > 1000 nM.

For `Cc1sc2c(c1C)C(c1ccc(Cl)cc1)=N[C@@H](CC(=O)NCCOCCNC(=O)O[C@H]1CC[C@H](Nc3cc(-n4nc(C(F)(F)F)c5c4CC(C)(C)CC5=O)ccc3C#N)CC1)c1nnc(C)n1-2` [Compound 154], the IC50 was > 1000 nM.

On to `CCOc1cc(N2CCC(C(=O)N3CCC(COc4ccc(Nc5cc(-n6nc(C(F)(F)F)c7c6CC(C)(C)CC7=O)ccc5C(N)=O)cc4)CC3)CC2)ccc1Nc1ncc2c(n1)N(C)c1ccccc1C(=O)N2C` [Compound 159], for which the 50% inhibitory concentration (IC50) was > 1000 nM.

In the case of `Cc1sc2c(c1C)C(c1ccc(Cl)cc1)=N[C@@H](CC(=O)NCCOCCOCCOCCOc1ccc(Nc3cc(-n4nc(C(F)(F)F)c5c4CC(C)(C)CC5=O)ccc3C(N)=O)cc1)c1nnc(C)n1-2` [Compound 162], the concentration for half-maximal inhibition (IC50) was > 1000 nM.

`CC[C@@H](C)Nc1cc(C(=O)NC2CC3CCC(C2)N3c2ccc(C(=O)c3ccc(CN4CCN(CC5CCN(C(=O)C[C@@H]6N=C(c7ccc(Cl)cc7)c7c(sc(C)c7C)-n7c(C)nnc76)CC5)CC4)cc3)cn2)c(C)cc1C(N)=O` (stereo partly shown) [Compound 165]: the IC50 is > 1000 nM.

On to `Cc1sc2c(c1C)C(c1ccc(Cl)cc1)=N[C@@H](CC(=O)NCCOCCN[C@@H](C)C(=O)N[C@H](C(=O)N1CCC[C@H]1C(=O)Nc1snnc1-c1ccccc1)C1CCCCC1)c1nnc(C)n1-2` [Compound 167], for which the 50% inhibitory concentration (IC50) is > 1000 nM.

For another test, the target named is T1, HSP90α protein (N-terminal). Kind of test: HSP90α-binding fluorescent polarization (FP) assay, competition with FITC-geldanamycin. As to conditions: probe FITC-geldanamycin 5 nM, 25° C. 120 min. Here is the method: as §1, §2
`Cc1sc2c(c1C)C(c1ccc(Cl)cc1)=NC(CC(=O)N1CCC(CN3CCN(Cc4ccc(-n5c(O)nnc5-c5cc(C(C)C)c(O)cc5O)cc4)CC3)CC1)c1nnc(C)n1-2` (stereo not shown) [Compound 1] gave an IC50 of 100 to 1000 nM.

Regarding `Cc1sc2c(c1C)C(c1ccc(Cl)cc1)=N[C@@H](CC(=O)NCCOCCN1CCC(Cc3ccc(-n4c(O)nnc4-c4cc(C(C)C)c(O)cc4O)cc3)CC1)c1nnc(C)n1-2` [Compound 9], the concentration for half-maximal inhibition (IC50) was in the range of 100 to 1000 nM.

For the molecule `Cc1sc2c(c1C)C(c1ccc(Cl)cc1)=N[C@@H](CC(=O)NCCOc1ccccc1CN(C)Cc1ccc(-n3c(O)nnc3-c3cc(C(C)C)c(O)cc3O)cc1)c1nnc(C)n1-2` [Compound 14], the IC50 lay in the range of 100 to 1000 nM.

Regarding `Cc1sc2c(c1C)C(c1ccc(Cl)cc1)=N[C@@H](CC(=O)NCCOc1ccc(CN(C)Cc3ccc(-n4c(O)nnc4-c4cc(C(C)C)c(O)cc4O)cc3)cc1)c1nnc(C)n1-2` [Compound 21], the IC50 fell in the range of 100 to 1000 nM.

For `Cc1sc2c(c1C)C(c1ccc(Cl)cc1)=N[C@@H](CC(=O)NCC(=O)NCCOc1ccc(-n3c(O)nnc3-c3cc(C(C)C)c(O)cc3O)cc1)c1nnc(C)n1-2` [Compound 24], the 50% inhibitory concentration (IC50) was 100 to 1000 nM.

For the molecule `Cc1sc2c(c1C)C(c1ccc(Cl)cc1)=N[C@@H](CC(=O)N1CCC(CCN3CCN(c4ccc(-n5c(O)nnc5-c5cc(C(C)C)c(O)cc5O)cc4)CC3)CC1)c1nnc(C)n1-2` [Compound 28], the half-inhibitory concentration (IC50) is 100 to 1000 nM.

Regarding `Cc1sc2c(c1C)C(c1ccc(Cl)cc1)=N[C@@H](CCNCc1ccc(-n3c(O)nnc3-c3cc(C(C)C)c(O)cc3O)cc1)c1nnc(C)n1-2` [Compound 31], the IC50 was 100 to 1000 nM.

Regarding `Cc1sc2c(c1C)C(c1ccc(Cl)cc1)=N[C@@H](CC(=O)N[C@@H](C)c1ccc(CN3CCN(Cc4ccc(-n5c(O)nnc5-c5cc(C(C)C)c(O)cc5O)cc4)CC3)cc1)c1nnc(C)n1-2` [Compound 38], the 50% inhibitory concentration (IC50) was in the range of 100 to 1000 nM.

With `CCc1cc(-c2nnc(O)n2-c2ccc(CN3CCN(CC4CCN(C(=O)C[C@@H]5N=C(c6ccc(Cl)cc6)c6c(sc(C)c6C)-n6c(C)nnc65)CC4)CC3)cc2)c(O)cc1O` [Compound 41], the IC50 is < 100 nM.

For `Cc1sc2c(c1C)C(c1ccc(Cl)cc1)=N[C@@H](CC(=O)N[C@@H](C)c1ccc(CN3CCC(Cc4ccc(-n5c(O)nnc5-c5cc(C(C)C)c(O)cc5O)cc4)CC3)cc1)c1nnc(C)n1-2` [Compound 44], the IC50 was in the range of 100 to 1000 nM.

`CCc1cc(-c2nnc(O)n2-c2ccc(CN3CCN(CC4CCN(C(=O)C[C@@H]5N=C(c6ccc(Cl)cc6)c6c(sc(C)c6C)-n6c(C)nnc65)CC4)CC3)c(F)c2)c(O)cc1O` [Compound 53]: the half-maximal inhibitory concentration (IC50) was 100 to 1000 nM.

`Cc1cc(-c2nnc(O)n2-c2ccc(CN3CCN(CC4CCN(C(=O)C[C@@H]5N=C(c6ccc(Cl)cc6)c6c(sc(C)c6C)-n6c(C)nnc65)CC4)CC3)c(F)c2)c(O)cc1O` [Compound 54] had an IC50 of 100 to 1000 nM.

`CCOc1cc(N2CCC(C(=O)NCOCCN3CCC(Cc4ccc(-n5c(O)nnc5-c5cc(C(C)C)c(O)cc5O)cc4)CC3)CC2)ccc1Nc1ncc2c(n1)N(C)c1ccccc1C(=O)N2C` [Compound 111] displayed an IC50 of 100 to 1000 nM.

`CCOc1cc(N2CCC(C(=O)NCCOCCOc3ccc(-n4c(O)nnc4-c4cc(CC)c(O)cc4O)cc3)CC2)ccc1Nc1ncc2c(n1)N(C)c1ccccc1C(=O)N2C` [Compound 112] displayed an IC50 of 100 to 1000 nM.

`CCc1cc(-c2nnc(O)n2-c2ccc(CN3CCC(C(=O)N4CCC(Nc5ncc(NC(=O)c6cc(C(=O)c7c(Cl)ccc(Cl)c7F)c[nH]6)cn5)CC4)CC3)cc2)c(O)cc1O` [Compound 116] showed an IC50 of 100 to 1000 nM.

Turning to `CCOc1cc(N2CCC(C(=O)NCCOCCOCCOc3ccc(Nc4cc(-n5nc(C(F)(F)F)c6c5CC(C)(C)CC6=O)ccc4C(N)=O)cc3)CC2)ccc1Nc1ncc2c(n1)N(C)c1ccccc1C(=O)N2C` [Compound 161], the concentration for half-maximal inhibition (IC50) is > 1000 nM.

As to `CCn1c(=O)/c(=C2\Sc3ccccc3N2C)s/c1=C\c1cccc[n+]1CCCCCCNC(=O)C[C@@H]1N=C(c2ccc(Cl)cc2)c2c(sc(C)c2C)-n2c(C)nnc21` [Compound 163], the 50% inhibitory concentration (IC50) was > 1000 nM.

Turning to `CC[C@@H](C)Nc1cc(C(=O)NC2CC3CCC(C2)N3c2ccc(C(=O)c3ccc(CN4CCN(CC5CCN(C(=O)C[C@@H]6N=C(c7ccc(Cl)cc7)c7c(sc(C)c7C)-n7c(C)nnc76)CC5)CC4)cc3)cn2)c(C)cc1C(N)=O` (stereo partly shown) [Compound 165], the IC50 was > 1000 nM.

Take `CC[C@@H](C)Nc1cc(C(=O)NC2CC3CCC(C2)N3c2ccc(C(=O)Nc3ccc(CN4CCN(CC5CCN(C(=O)C[C@@H]6N=C(c7ccc(Cl)cc7)c7c(sc(C)c7C)-n7c(C)nnc76)CC5)CC4)cc3)cn2)ccc1C(N)=O` (stereo partly shown) [Compound 166]: the IC50 was > 1000 nM.
